From paper PMC7251097, “Aspartate/asparagine-β-hydroxylase: a high-throughput mass spectrometric assay for discovery of small molecule inhibitors” (Scientific Reports, 2020)
Structures can show the parent of a compound that is named as a salt. Where two headings read alike, the source gives them in different places. One block for each compound: values may come before it.

Biological target: T1, His6-AspH315–758 (human aspartate/asparagine-β-hydroxylase, AspH) (Homo sapiens, UniProt Q12797)
T1 construct: N-Terminally His6-tagged human AspH315–758 (His6-AspH315–758) was produced in E. coli BL21 (DE3) cells; made in house; host or cells: E. coli BL21 (DE3), pET-28a(+) vector
T1 sequence (Q12797 315-758): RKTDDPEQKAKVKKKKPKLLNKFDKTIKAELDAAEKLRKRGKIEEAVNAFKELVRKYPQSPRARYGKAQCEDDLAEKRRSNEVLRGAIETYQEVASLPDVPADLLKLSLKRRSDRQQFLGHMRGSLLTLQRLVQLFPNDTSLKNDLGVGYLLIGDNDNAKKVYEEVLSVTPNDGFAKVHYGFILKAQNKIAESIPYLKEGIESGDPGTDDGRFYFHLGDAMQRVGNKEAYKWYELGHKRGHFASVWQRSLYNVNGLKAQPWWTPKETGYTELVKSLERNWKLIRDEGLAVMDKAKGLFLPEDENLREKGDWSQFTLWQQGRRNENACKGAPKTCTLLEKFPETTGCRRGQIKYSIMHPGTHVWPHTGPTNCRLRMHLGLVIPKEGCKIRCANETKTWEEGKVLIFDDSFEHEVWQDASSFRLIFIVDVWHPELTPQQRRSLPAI
Assay: SPE-MS AspH inhibition assay (LOPAC screen at fixed 20 μM and IC50 dose-response), hydroxylation of cyclic peptide hFX-CP101–119
Type: biochemical
Conditions: for IC50: read-out: IC50

[1] = LOPAC compound at 20uM, plate 3, conversion of substrate peptide
[2] = LOPAC compound at 20uM, plate 2, conversion of substrate peptide
[3] = LOPAC compound at 20uM, plate 2, normalised to DMSO and 2,4-PDCA controls, read-out: Plate 2 (% inhibition)
[4] = LOPAC compound at 20uM, plate 2, normalised to DMSO and 2,4-PDCA controls
[5] = LOPAC compound at fixed 20 uM, plate 1, normalised to DMSO and 2,4-PDCA controls
[6] = LOPAC compound at fixed 20 uM, substrate conversion, plate 1
[7] = 50 nM His6-AspH315–758, 1.0 μM hFX-CP101–119, 3 μM 2OG, 2 μM Fe(II), 50 mM HEPES pH 7.5, 20 °C, mean ± SD, n = 2 (2,4-PDCA n = 10)
[8] = LOPAC Plate 4, compound at 20 uM, substrate conversion
[9] = LOPAC Plate 4, compound at 20 uM, read-out: % inhibition
[10] = AspH activity, fixed compound concentration 20 μM, initial LOPAC screen, 0.5%v/v DMSO, read-out: Inhibition at 20 µM [%]
[11] = LOPAC Plate 4, compound at 20 uM
[12] = plate 5 (Pfitzer), test compounds at fixed 20 μM
[13] = plate 5 (Pfitzer), test compounds at fixed 20 μM, mean conversion DMSO 32.88

Compound: CCn1cc(C(=O)[O-])c(=O)c2ccc(C)nc21.[Na+] [Nalidixic acid sodium]
Plate 3 (% conversion) [1]: 26.41%

Plate 3 (% conversion) [1]: 34.21%
Compound: CNC1(C)C2CCC(C2)C1(C)C (stereo not drawn) [Mecamylamine hydrochloride]

Plate 2 (% conversion) [2]: 67.44%
inhibition at 20 µM [3]: -94%
Compound: OCCN1CCN(CC/C=C2/c3ccccc3Sc3ccc(C(F)(F)F)cc32)CC1 [cis-(Z)-Flupenthixol dihydrochloride]

Compound: Nc1ccncc1 [4-Aminopyridine]
Plate 1 (% conversion): 34.98%

Inhibition at 20 µM [%] (AspH activity, fixed compound concentration 20 μM, initial LOPAC screen, 0.5%v/v DMSO): 100.3%
Plate 2 (% conversion) [2]: 2.39%
Plate 2 (% inhibition) [4]: 100.26%
Compound: O=C(O)CN(CCN(CC(=O)O)CC(=O)O)CCN(CC(=O)O)CC(=O)O [Diethylenetriaminepentaacetic acid, reference compound]

Compound: CC(C)C[C@H](NP(=O)([O-])O[C@H]1O[C@H](C)[C@@H](O)[C@H](O)[C@@H]1O)C(=O)N[C@@H](Cc1c[nH]c2ccccc12)C(=O)[O-].[Na+].[Na+] [Phosphoramidon disodium]
% conversion: 33.86%

Compound: Cc1cc2c(s1)Nc1ccccc1N=C2N1CCN(C)CC1 [Olanzapine]
% conversion: 42.51%
inhibition at 20 µM: -17.7%

Compound: NN=C(N)N.NN=C(N)N.O=S(=O)(O)O [Aminoguanidine hemisulfate]
Plate 1 (% inhibition) [5]: 3.68%
Plate 1 (% conversion) [6]: 34.64%

IC50 [μM] [7]: weak
IC50 [7]: 15.5 ± 3.13 µM
Compound: O=C(O)C(=O)N[C@H](Cc1ccccc1)C(=O)O [NOFD, N-oxalyl-D-phenylalanine, reference compound]

inhibition at 20 µM [3]: -3.91%
Compound: Clc1ccc2c(c1)N=C(N1CCNCC1)c1ccccc1N2 [N-Desmethylclozapine]

Plate 1 (% inhibition) [5]: -4.46%
Plate 1 (% conversion) [6]: 37.37%
Compound: NS(=O)(=O)c1cc2c(cc1Cl)N=CNS2(=O)=O [Chlorothiazide]

Compound: CC[C@@H](C(N)=O)N1CCCC1=O [Levetiracetam]
Plate 3 (% conversion): 34.85%

Plate 2 (% conversion) [2]: 5.85%
Plate 2 (% inhibition) [4]: 89.92%
Compound: CC(C)NC[C@H](O)c1ccc(O)c(O)c1.O=C(O)C(O)C(O)C(=O)O [R(-)-Isoproterenol (+)-bitartrate]

Plate 3 (% conversion) [1]: 62.31%
Compound: COCC(=O)O[C@]1(CCN(C)CCCc2nc3ccccc3[nH]2)CCc2cc(F)ccc2[C@@H]1C(C)C [Mibefradil dihydrochloride]

Compound: CC(=O)NCCc1c[nH]c2ccccc12 [N-Acetyltryptamine]
Plate 1 (% inhibition) [5]: -6.27%
Plate 1 (% conversion) [6]: 37.98%

Plate 2 (% conversion) [2]: 58.99%
inhibition at 20 µM [3]: -68.8%
Compound: O=C1NCN(c2ccccc2)C12CCN(CCCC(c1ccc(F)cc1)c1ccc(F)cc1)CC2 [Fluspirilene]

Plate 3 (% conversion) [1]: 6.03%
Compound: CC(C)NCC(O)c1ccc(O)c(O)c1.Cl (single isomer, unassigned; (-)) [(-)-Isoproterenol hydrochloride]

% conversion [8]: 31.93%
Compound: CN(C)C[C@H](O)Cn1c2ccc(Br)cc2c2cc(Br)ccc21 (racemic) [Wiskostatin]

Plate 1 (% inhibition) [5]: -6.25%
Plate 1 (% conversion) [6]: 37.97%
Compound: CNC(=O)[C@H]1O[C@@H](n2cnc3c(NCc4ccc(N)cc4)ncnc32)[C@H](O)[C@@H]1O [AB-MECA]

Compound: Brc1ccc([C@H]2CN3CCSC3=N2)cc1.O=C(O)C(=O)O [S(-)-p-Bromotetramisole oxalate]
Plate 1 (% inhibition) [5]: 75.43%
Plate 1 (% conversion) [6]: 10.54%

% conversion [8]: 26.50%
inhibition at 20 µM [9]: 29.2%
Compound: CCCCCCCCCCCCCCSCC(=O)O [Tetradecylthioacetic acid]

Compound: O=c1c(O)c(-c2ccc(O)c(O)c2)oc2cc(O)cc(O)c12 [quercetin, reference compound]
IC50 [7]: 0.24 ± 0.01 µM
inhibition at 20 µM [10]: 97.8%
% conversion [8]: 3.10%
inhibition at 20 µM [9]: 97.8%

inhibition at 20 µM [3]: -8.88%
Compound: Cc1cnc(C(=O)NCCc2ccc(S(=O)(=O)NC(=O)NC3CCCCC3)cc2)cn1 [Glipizide]

Plate 3 (% conversion) [1]: 43.81%
Compound: CC(=O)[C@H]1CC[C@H]2[C@@H]3CCC4=CC(=O)CC[C@]4(C)[C@H]3CC[C@]12C [Progesterone]

Compound: CC(=O)O[C@H]1C[C@@H]2CC[C@@H]3[C@H](CC[C@@]4(C)[C@H]3C[C@H]([N+]3(C)CCCCC3)[C@@H]4OC(C)=O)[C@@]2(C)C[C@@H]1[N+]1(C)CCCCC1 [Pancuronium bromide]
Plate 3 (% conversion): 37.93%

% inhibition [11]: 5.34%
% conversion [8]: 34.65%
Compound: CC(C)(C)c1ccc(/C=C/C(=O)Nc2ccc3c(c2)OCCO3)cc1 [AMG 9810]

% inhibition [11]: 6.57%
% conversion [8]: 34.23%
Plate 5 (% inhibition) [12]: 40.35%
Plate 5 (% conversion) [13]: 22.58%
Compound: PD-184161

Plate 3 (% conversion) [1]: 41.91%
Compound: CCOC(=O)C1=C(C)NC(C)=C(C(=O)OCC)C1c1c(F)c(F)c(F)c(F)c1F [Nemadipine-A]

Compound: C[C@@]12C(=O)OC(=O)[C@]1(C)[C@H]1CC[C@@H]2O1 [Cantharidin]
Plate 1 (% conversion): 17.40%
Plate 1 (% inhibition): 55.02%

Plate 3 (% conversion) [1]: 43.58%
Compound: COc1ccccc1N1CCN(CCN(C(=O)c2ccc(F)cc2)c2ccccn2)CC1.Cl.Cl [p-MPPF dihydrochloride]

Plate 1 (% inhibition) [5]: -13.88%
Plate 1 (% conversion) [6]: 40.53%
Compound: CN(C)CC[C@@H](c1ccc(Cl)cc1)c1ccccn1 [(+)-Chlorpheniramine maleate]

Compound: Nc1ncnc2c1ncn2C1CCCO1 (stereo not drawn) [SQ 22536]
% conversion: 37.42%

Plate 1 (% inhibition) [5]: -6.36%
Plate 1 (% conversion) [6]: 38.01%
Compound: CC(=O)c1ccc(S(=O)(=O)NC(=O)NC2CCCCC2)cc1 [Acetohexamide]

Plate 3 (% conversion) [1]: 37.15%
Plate 5 (% inhibition) [12]: 12.80%
Plate 5 (% conversion) [13]: 31.96%
Compound: O=C(N[C@H]1CN2CCC1CC2)c1cc2ccoc2cn1 [PHA-543613]

Compound: Brc1c(NC2=NCCN2)ccc2nccnc12 [UK 14,304]
% conversion: 39.75%
% inhibition (20 µM): -9.62%

Compound: CN1CC[C@@]2(C)c3cc(OC(=O)Nc4ccccc4)ccc3N(C)[C@@H]12 [Phenserine]
Plate 2 (% conversion): 38.49%
inhibition at 20 µM (read-out: Plate 2 (% inhibition)): -7.56%

Plate 1 (% inhibition) [5]: -10.54%
Plate 1 (% conversion) [6]: 39.41%
Plate 5 (% inhibition) [12]: 44.21%
Plate 5 (% conversion) [13]: 21.27%
Compound: CC(=O)NC[C@H]1CN(c2ccc(N3CCOCC3)c(F)c2)C(=O)O1 [Linezolid]

inhibition at 20 µM [10]: 98.5%
Compound: O=c1ccc2ccc(O)c(O)c2o1 [Daphnetin, reference compound]

Compound: Cc1ccc(O)c([C@H](CCN(C(C)C)C(C)C)c2ccccc2)c1 [Tolterodine]
Plate 5 (% conversion): 15.18%
Plate 5 (% inhibition): 62.09%

Compound: O=NN(CCCl)C(=O)NCCCl [Carmustine]
Plate 1 (% conversion): 39.33%
Plate 1 (% inhibition) [5]: -10.30%

Plate 2 (% conversion) [2]: 30.60%
Plate 2 (% inhibition) [4]: 15.99%
Compound: KRM-III

Plate 3 (% conversion) [1]: 33.79%
Compound: CCCCc1ncc(/C=C(\Cc2cccs2)C(=O)O)n1Cc1ccc(C(=O)O)cc1 [Eprosartan mesylate]

% conversion [8]: 38.57%
Compound: c1ccc(C2CN3CCSC3=N2)cc1 (stereo not drawn) [Tetramisole hydrochloride]

% conversion [8]: 41.84%
inhibition at 20 µM [9]: -15.7%
Compound: CC(=O)S[C@@H]1CC2=CC(=O)CC[C@]2(C)[C@H]2CC[C@@]3(C)[C@@H](CC[C@@]34CCC(=O)O4)[C@H]12 [Spironolactone]

% inhibition [11]: -0.0747%
% conversion [8]: 36.50%
Compound: O=c1[nH]c2ccccc2c2ccccc12 [6(5H)-Phenanthridinone]

Plate 5 (% inhibition) [12]: 28.96%
Plate 5 (% conversion) [13]: 26.46%
Compound: O=C(NOCC1CC1)c1ccc(F)c(F)c1Nc1ccc(I)cc1Cl [PD184352]

Plate 3 (% conversion) [1]: 42.00%
Compound: CCc1c(C)[nH]c2c1C(=O)C(CN1CCOCC1)CC2 (stereo not drawn) [Molindone hydrochloride]

Compound: CC(NC(C)(C)C)C(=O)c1cccc(Cl)c1 (stereo not drawn) [Bupropion hydrochloride]
Plate 1 (% conversion): 38.01%
Plate 1 (% inhibition): -6.38%

Plate 2 (% conversion) [2]: 37.94%
Plate 2 (% inhibition) [4]: -5.92%
Compound: NC(=O)NO [Hydroxyurea]

% conversion [8]: 33.19%
Compound: CC(C)[N+](C)(CCOC(=O)C1c2ccccc2Oc2ccccc21)C(C)C [Propantheline bromide]

Plate 2 (% conversion) [2]: 11.93%
Plate 2 (% inhibition) [4]: 71.75%
Compound: Nc1nc(Cl)nc2c1ncn2[C@@H]1O[C@H](COP(=O)(O)OP(=O)(O)OP(=O)(O)O)C(O)C1O (stereo in doubt)
